Data from patent US20240124422A1, “MUTANT PI3K-ALPHA INHIBITORS AND THEIR USE AS PHARMACEUTICALS” (Prelude Therapeutics Incorporated, priority 2022, published 2024).

system: phosphorylation of AKT on Ser473 as a readout of the PI3K pathway in T-47D (heterozygous PIK3CA H1047R) cells; experiment: PI3K pathway activation assay, pAKT Ser473 HTRF, T-47D cells; type: cell-based; details: Homo sapiens, T47D, 2 h, two hours of treatment
Experimental: The inhibitory activity of compounds was evaluated by measuring phosphorylation of AKT on Ser473 as a readout of the PI3K pathway using HTRF (CisBio catalog number: 64AKSPE). These studies were conducted in the T-47D (heterozygous PIK3CA H1047R) and SKBR3 (PIK3CA WT) cell lines. Cells were maintained in a 37° C. incubator at 5% CO2 in the following media: T-47D: RPMI 1640, ATCC© Modification (Gibco, A10491-01) supplemented with 10% v/v FBS (Gibco, 26140-079), 1% penicillin streptomycin (Gibco, 15140-122), and 7.4 ug/mL insulin (MilliporeSigma, I9278); SKBR3: McCoy's 5a (Modified) Medium (Gibco, 16600-082) supplemented with 10% v/v FBS (Gibco, 26140-079). Cells were seeded in 384-well plates at a density of 4,000 cells/well. Compounds dissolved in DMSO were added using a digital dispense (D300E, Tecan) 10-point serial dilution. After two hours of treatment, cells were lysed for thirty minutes and then incubated with detection reagents per HTRF kit material and manufacturer's instructions. Fluorescence signal was measured with a multimode plate reader (Envision 2105, Perkin Elmer). Fluorescent signal was normalized to background and DMSO controls to obtain percent inhibition/activity for each compound.

| IC50 | SMILES |
| --- | --- |
| 500 to 10000 nM | CCc1cc(C(C)Nc2ccccc2C(=O)O)c2nc(N3CC4CC4C3)n(C)c(=O)c2c1 (stereo not shown) [Example 78, 2-((1-(2-(3-Azabicyclo[3.1.0]hexan-3-yl)-6-ethyl-3-methyl-4-oxo-3,4-dihydroquinazolin-8-yl)ethyl)amino)benzoic acid] |
| 500 to 10000 nM | Cc1cc(C(C)Nc2ccc(C(F)(F)F)nc2C(=O)O)c2nc(N3CC4CC4C3)n(C)c(=O)c2c1 (stereo not shown) [Example 80, 3-((1-(2-(3-azabicyclo[3.1.0]hexan-3-yl)-3,6-dimethyl-4-oxo-3,4-dihydro-quinazolin-8-yl)ethyl)amino)-6-(trifluoromethyl)picolinic acid] |
| 500 to 10000 nM | Cc1cc(C(C)Nc2ccccc2C(=O)O)c2nc(N3CC4CC4C3)n(CC(F)(F)F)c(=O)c2c1 (stereo not shown) [Example 103, 2-((1-(2-(3-Azabicyclo[3.1.0]hexan-3-yl)-6-methyl-4-oxo-3-(2,2,2-trifluoroethyl)-3,4-dihydroquinazolin-8-yl)ethyl)amino)benzoic acid] |
| < 500 nM | Cc1cc(C(C)Nc2ccccc2C(=O)O)c2nc(N3CC4CC4C3)n(C)c(=O)c2c1F (single isomer, unassigned) [Example 95, 2-((1-(2-(3-Azabicyclo[3.1.0]hexan-3-yl)-5-fluoro-3,6-dimethyl-4-oxo-3,4-dihydroquinazolin-8-yl)ethyl)amino)benzoic acid] |
| 500 to 10000 nM | Cc1cc(C(C)Nc2ccccc2C(=O)O)c2nc(N3CCC(O)CC3)n(C)c(=O)c2c1 (stereo not shown) [Example 57, 2-((1-(2-(4-hydroxypiperidin-1-yl)-3,6-dimethyl-4-oxo-3,4-dihydroquinazolin-8-yl)ethyl)amino)benzoic acid] |
| 500 to 10000 nM | CC(Nc1ccccc1C(=O)O)c1cccc2c(=O)n(C)c(N3Cc4ccccc4C3)nc12 (stereo not shown) [Example 72, 2-((1-(2-(Isoindolin-2-yl)-3-methyl-4-oxo-3,4-dihydroquinazolin-8-yl)ethyl)amino)benzoic acid] |
| < 500 nM | Cc1cc(C(C)Nc2ccccc2C(=O)O)c2nc(N3CC4(C3)CC(F)(F)C4)n(C)c(=O)c2c1 (stereo not shown) [Example 109, 2-[1-[2-(6,6-difluoro-2-azaspiro[3.3]heptan-2-yl)-3,6-dimethyl-4-oxoquinazolin-8-yl]ethylamino]benzoic acid] |
| 500 to 10000 nM | Cc1cc(C(C)Nc2ccccc2C(=O)O)c2nc(-c3ccn[nH]3)n(C)c(=O)c2c1 (stereo not shown) [Example 25, 2-((1-(3,6-dimethyl-4-oxo-2-(1H-pyrazol-5-yl)-3,4-dihydroquinazolin-8-yl)ethyl)amino)benzoic acid] |
| 500 to 10000 nM | Cc1cc(C(C)Nc2ccccc2C(=O)O)c2nc(O)n(C)c(=O)c2c1 (stereo not shown) [Example 42, 2-((1-(2-hydroxy-3,6-dimethyl-4-oxo-3,4-dihydroquinazolin-8-yl)ethyl)amino) benzoic acid] |
| 500 to 10000 nM | Cc1cc(C(C)Nc2ccccc2C(=O)O)c2nc(N3CCC(NC(=O)OC(C)(C)C)C3)n(C)c(=O)c2c1 (stereo not shown) [Example 110, 2-[1-[3,6-dimethyl-2-[3-[(2-methylpropan-2-yl)oxycarbonylamino]pyrrolidin-1-yl]-4-oxoquinazolin-8-yl]ethylamino]benzoic acid] |
| 500 to 10000 nM | Cc1cc(C(Nc2ccccc2C(=O)O)C(F)F)c2nc(N3CC4CC4C3)n(C)c(=O)c2c1 (stereo not shown) [Example 96, 2-((1-(2-(3-azabicyclo[3.1.0]hexan-3-yl)-3,6-dimethyl-4-oxo-3,4-dihydro-quinazolin-8-yl)-2,2-difluoroethyl)amino)benzoic acid] |
| 500 to 10000 nM | Cc1cc(C(C)Sc2ccccc2C(=O)O)c2nc(N3Cc4ccccc4C3)n(C)c(=O)c2c1 (stereo not shown) [Example 13, 2-((1-(2-(isoindolin-2-yl)-3,6-dimethyl-4-oxo-3,4-dihydroquinazolin-8-yl)ethyl)thio)benzoic acid] |
| 500 to 10000 nM | COc1cc(C(C)Nc2ccccc2C(=O)O)c2nc(N3CC4CC4C3)n(C)c(=O)c2c1 (stereo not shown) [Example 77, 2-((1-(2-(3-azabicyclo[3.1.0]hexan-3-yl)-6-methoxy-3-methyl-4-oxo-3,4-dihydroquinazolin-8-yl)ethyl)amino)benzoic acid] |
| < 500 nM | Cc1cc(C(C)Nc2ccccc2C(=O)O)c2nc(N3CCCC3(C)C)n(C)c(=O)c2c1 (stereo not shown) [Example 115, 2-((1-(2-(2,2-dimethylpyrrolidin-1-yl)-3,6-dimethyl-4-oxo-3,4-dihydroquinazolin-8-yl)ethyl)amino)benzoic acid] |
| < 500 nM | Cc1cc(C(C)Nc2ccccc2C(=O)O)c2nc(N3CC4(CCC4(F)F)C3)n(C)c(=O)c2c1 (stereo not shown) [Example 106, 2-[1-[2-(7,7-difluoro-2-azaspiro[3.3]heptan-2-yl)-3,6-dimethyl-4-oxoquinazolin-8-yl]ethylamino]benzoic acid] |
| 500 to 10000 nM | Cc1cc(C(C)Nc2ccccc2C(=O)O)c2nc(N3Cc4ccccc4C3)n([C@H]3C[C@H](C#N)C3)c(=O)c2c1 (stereo partly shown) [Example 75, 2-((1-(3-((1r,3r)-3-Cyanocyclobutyl)-2-(isoindolin-2-yl)-6-methyl-4-oxo-3,4-dihydroquinazolin-8-yl)ethyl)amino)benzoic acid] |
| 500 to 10000 nM | C=CC(=O)Nc1c(C)cc(C(C)Nc2ccccc2C(=O)O)c2nc(N3CC4CC4C3)n(C)c(=O)c12 (stereo not shown) [Example 38, 2-((1-(5-acrylamido-2-(3-azabicyclo[3.1.0]hexan-3-yl)-3,6-dimethyl-4-oxo-3,4-dihydroquinazolin-8-yl)ethyl)amino)benzoic acid] |
| 500 to 10000 nM | CCC(Nc1ccccc1C(=O)O)c1cc(C)cc2c(=O)n(C)c(N3CC4CC4C3)nc12 (stereo not shown) [Example 97, 2-((1-(2-(3-azabicyclo[3.1.0]hexan-3-yl)-3,6-dimethyl-4-oxo-3,4-dihydro-quinazolin-8-yl)propyl)amino)benzoic acid] |

| SMILES | IC50 |
| --- | --- |
| Cc1cc(C(C)Nc2ccccc2C(=O)O)c2nc(N3CC4CC(C4)C3)n(C)c(=O)c2c1 (stereo not shown) [Example 116, 2-((1-(2-(3-Azabicyclo[3.1.1]heptan-3-yl)-3,6-dimethyl-4-oxo-3,4-dihydroquinazolin-8-yl)ethyl)amino)benzoic acid] | < 500 nM |
| Cc1cc(C(C)Nc2ncccc2C(=O)O)c2nc(N3Cc4ccccc4C3)n(C)c(=O)c2c1 (stereo not shown) [Example 36, 2-((1-(2-(isoindolin-2-yl)-3,6-dimethyl-4-oxo-3,4-dihydroquinazolin-8-yl)ethyl)amino)nicotinic acid] | 500 to 10000 nM |
| COc1cccc(NC(C)c2cc(C)cc3c(=O)n(C)c(N4Cc5ccccc5C4)nc23)c1C(=O)O (stereo not shown) [Example 29, 2-((1-(2-(isoindolin-2-yl)-3,6-dimethyl-4-oxo-3,4-dihydroquinazolin-8-yl)ethyl)amino)-6-methoxybenzoic acid] | 500 to 10000 nM |
| Cc1cc(C(C)Nc2ccccc2C(=O)O)c2nc(N3CC4CC3CN4C(=O)OC(C)(C)C)n(C)c(=O)c2c1 (stereo not shown) [Example 65, 2-((1-(2-(5-(tert-Butoxycarbonyl)-2,5-diazabicyclo[2.2.1]heptan-2-yl)-3,6-dimethyl-4-oxo-3,4-dihydroquinazolin-8-yl)ethyl)amino)benzoic acid] | 500 to 10000 nM |
| Cc1cc(C(C)Nc2cc(F)ccc2C(=O)O)c2nc(N3Cc4ccccc4C3)n(C)c(=O)c2c1 (stereo not shown) [Example 32, 4-fluoro-2-((1-(2-(isoindolin-2-yl)-3,6-dimethyl-4-oxo-3,4-dihydroquinazolin-8-yl)ethyl)amino)benzoic acid] | < 500 nM |

same assay, conditions: two hours of treatment, read-out: T47D pAKT IC50

| SMILES | IC50 |
| --- | --- |
| COc1ccc(OC(=O)NC2[C@H]3CN(c4nc5c(C(C)Nc6ccccc6C(=O)O)cc(C)cc5c(=O)n4C)C[C@@H]23)cc1 (stereo partly drawn) [Example 62, 2-((1-(2-((1R,5S,6s)-6-(((4-methoxyphenoxy)carbonyl)amino)-3-azabicyclo[3.1.0]hexan-3-yl)-3,6-dimethyl-4-oxo-3,4-dihydroquinazolin-8-yl)ethyl)amino)benzoic acid] | 500 to 10000 nM |
| Cc1cc(C(C)Nc2ccccc2C(=O)O)c2nc(N3C[C@@H]4C(C(=O)N(C)c5cccnc5)[C@@H]4C3)n(C)c(=O)c2c1 (stereo partly drawn) [Example 88, 2-((1-(3,6-Dimethyl-2-((1R,5S,6R)-6-(methyl(pyridin-3-yl)carbamoyl)-3-azabicyclo[3.1.0]hexan-3-yl)-4-oxo-3,4-dihydroquinazolin-8-yl)ethyl)amino)benzoic acid] | 500 to 10000 nM |
| Cc1cc(C(C)Nc2ccccc2C(=O)O)c2nc(N3CCC(c4ccccc4)C3)n(C)c(=O)c2c1 (single isomer, unassigned) [Example 53, 2-[1-[3,6-dimethyl-4-oxo-2-(3-phenylpyrrolidin-1-yl)quinazolin-8-yl]ethylamino]benzoic acid] | 500 to 10000 nM |
| Cc1cc(C(C)Nc2ccccc2C(=O)O)c2nc(N3C[C@@H]4C(NC(=O)OC5CC5)[C@@H]4C3)n(C)c(=O)c2c1 (stereo partly drawn) [Example 63, 2-((1-(2-((1R,5S,6s)-6-((cyclopropoxycarbonyl)amino)-3-azabicyclo[3.1.0]hexan-3-yl)-3,6-dimethyl-4-oxo-3,4-dihydroquinazolin-8-yl)ethyl)amino)benzoic acid] | 500 to 10000 nM |
| Cc1cc(C(C)Nc2ccccc2C(=O)O)c2nc(N3C[C@@H]4C(NC(=O)OCCN5CCOCC5)[C@@H]4C3)n(C)c(=O)c2c1 (stereo partly drawn) [Example 61, 2-((1-(3,6-dimethyl-2-((1R,5S,6s)-6-(((2-morpholinoethoxy)carbonyl)amino)-3-azabicyclo[3.1.0]hexan-3-yl)-4-oxo-3,4-dihydroquinazolin-8-yl)ethyl)amino)benzoic acid] | 500 to 10000 nM |
